According to US20040023909A1, “Process for preventing or reducing undesirable immunological effects to infectious agents in subjects” (Enzo Therapeutics, Inc, priority 1997, published 2004):

System: U937 cells
Experiment: Delivery of labeled BSA to cells (fluorescent microscope)
Assay type: cell-based
Conditions: for Cells displaying fluorescense: overnight at 37° C.
Method: U937 cells were grown to approximately 10^6/ml and centrifuged, washed in growth medium (RPMI), suspended in 3.5 ml of RPMI, and 0.8 ml was placed in each of four 35 mm wells. BSA-BF and BSA-F, each at a concentration of 20 mg/ml, were added to the four wells together with 200 ul of RPMI as follows:
The cell suspensions were incubated overnight at 37° C. One ml of cell suspension was placed in 2.0 ml of RPMI and centrifuged at 1000 rpm for 5 minutes. The supernatants were decanted and the cells were resuspended in 200 ul of RPMI. Samples of each cell suspension were placed on a microscope slide and examined using a fluorescent microscope.

Substance | Localisation of fluorescense in cells undergoing mitosis | Cells displaying fluorescense (20 ul of 20 mg/ml) | Cells displaying fluorescense (50 ul of 20 mg/ml)
BSA-BF: Bovine Serum Albumin labeled by conjugation with both biotin and fluorescein | bright fluorescense that was confined to the nuclei | Approximately 40% | Approximately 40%
BSA-F: Bovine Serum Albumin labeled with fluourescein alone [reference compound] | – | < 5% | < 5%
